From US7507727B2, “Substituted quinobenzoxazine analogs and methods of using thereof” (Cylene Pharmaceuticals, Inc., priority 2003, dated 2009)

Target: c-Myc template DNA (c-myc quadruplex)
Experiment: Quadruplex binding / stop assay (Taq polymerase arrest, capillary electrophoresis)
Conditions: read-out: Stop Data c-Myc μM; concentration at which 50% of the DNA was arrested (arrested:full-length 1:1)

Row | SMILES | IC50
1 | Nc1c(F)c(NCCCN2CCOCC2)c2c3c1c(=O)c(C(=O)NCCCN1CCOCC1)cn3-c1cc3ccccc3cc1O2 [compound 218] | 1.75 µM
2 | CC(C)(C)OC(=O)NC1CCN(C(=O)c2cn3c4c(c(NCCCN5CCOCC5)c(F)c(N)c4c2=O)Oc2cc4ccccc4cc2-3)C1 (stereo not shown) [compound 219] | 1.75 µM
3 | CN(C)CCCCNC(=O)c1cn2c3c(c(NCCCN4CCOCC4)c(F)c(N)c3c1=O)Oc1cc3ccccc3cc1-2 [compound 220] | 1.75 µM
4 | Nc1c(F)c(NCCCN2CCOCC2)c2c3c1c(=O)c(C(=O)NCCN1CCOCC1)cn3-c1cc3ccccc3cc1O2 [compound 221] | 1.75 µM
5 | Nc1c(F)c(NCCCN2CCOCC2)c2c3c1c(=O)c(C(=O)N1CCOCC1)cn3-c1cc3ccccc3cc1O2 [compound 222] | 1.75 µM
6 | CN1CCN(CCCNC(=O)c2cn3c4c(c(NCCCN5CCOCC5)c(F)c(N)c4c2=O)Oc2cc4ccccc4cc2-3)CC1 [compound 223] | 1.75 µM
7 | CC(C)(C)OC(=O)NC1CCN(c2c(F)c(N)c3c(=O)c(C(=O)NCCN4CCCC4)cn4c3c2Oc2cc3ccccc3cc2-4)C1 (stereo not shown) [compound 224] | 1.75 µM
8 | CN1CCCC1CCNC(=O)c1cn2c3c(c(N4CCC(NC(=O)OC(C)(C)C)C4)c(F)c(N)c3c1=O)Oc1cc3ccccc3cc1-2 (stereo not shown) [compound 225] | 1.75 µM
9 | CC(C)(C)OC(=O)NC1CCN(c2c(F)c(N)c3c(=O)c(C(=O)NCCCN4CCOCC4)cn4c3c2Oc2cc3ccccc3cc2-4)C1 (stereo not shown) [compound 226] | 1.75 µM
10 | CC(C)(C)OC(=O)NC1CCN(C(=O)c2cn3c4c(c(N5CCC(NC(=O)OC(C)(C)C)C5)c(F)c(N)c4c2=O)Oc2cc4ccccc4cc2-3)C1 (stereo not shown) [compound 227] | 1.75 µM
11 | CN(C)CCCCNC(=O)c1cn2c3c(c(N4CCC(NC(=O)OC(C)(C)C)C4)c(F)c(N)c3c1=O)Oc1cc3ccccc3cc1-2 (stereo not shown) [compound 228] | 1.75 µM
12 | CC(C)(C)OC(=O)NC1CCN(c2c(F)c(N)c3c(=O)c(C(=O)NCCN4CCOCC4)cn4c3c2Oc2cc3ccccc3cc2-4)C1 (stereo not shown) [compound 229] | 1.75 µM
13 | CC(C)(C)OC(=O)NC1CCN(c2c(F)c(N)c3c(=O)c(C(=O)N4CCOCC4)cn4c3c2Oc2cc3ccccc3cc2-4)C1 (stereo not shown) [compound 230] | 1.75 µM
14 | CN1CCN(CCCNC(=O)c2cn3c4c(c(N5CCC(NC(=O)OC(C)(C)C)C5)c(F)c(N)c4c2=O)Oc2cc4ccccc4cc2-3)CC1 (stereo not shown) [compound 231] | 1.75 µM
15 | Nc1c(F)c(NCCCN2CCOCC2)c2c3c1c(=O)c(C(=O)N1CCC(N)C1)cn3-c1cc3ccccc3cc1O2 (stereo not shown) [compound 232] | 1.75 µM
16 | Nc1c(F)c(N2CCC(N)C2)c2c3c1c(=O)c(C(=O)NCCN1CCCC1)cn3-c1cc3ccccc3cc1O2 (stereo not shown) [compound 233] | 1.75 µM
17 | CN1CCCC1CCNC(=O)c1cn2c3c(c(N4CCC(N)C4)c(F)c(N)c3c1=O)Oc1cc3ccccc3cc1-2 (stereo not shown) [compound 234] | 1.75 µM
18 | Nc1c(F)c(N2CCC(N)C2)c2c3c1c(=O)c(C(=O)NCCCN1CCOCC1)cn3-c1cc3ccccc3cc1O2 (stereo not shown) [compound 235] | 1.75 µM
19 | Nc1c(F)c(N2CCC(N)C2)c2c3c1c(=O)c(C(=O)N1CCC(N)C1)cn3-c1cc3ccccc3cc1O2 (stereo not shown) [compound 236] | 1.75 µM
20 | CN(C)CCCCNC(=O)c1cn2c3c(c(N4CCC(N)C4)c(F)c(N)c3c1=O)Oc1cc3ccccc3cc1-2 (stereo not shown) [compound 237] | 1.75 µM
21 | Nc1c(F)c(N2CCC(N)C2)c2c3c1c(=O)c(C(=O)NCCN1CCOCC1)cn3-c1cc3ccccc3cc1O2 (stereo not shown) [compound 238] | 1.75 µM
22 | Nc1c(F)c(N2CCC(N)C2)c2c3c1c(=O)c(C(=O)N1CCOCC1)cn3-c1cc3ccccc3cc1O2 (stereo not shown) [compound 239] | 1.75 µM
23 | CN1CCN(CCCNC(=O)c2cn3c4c(c(N5CCC(N)C5)c(F)c(N)c4c2=O)Oc2cc4ccccc4cc2-3)CC1 (stereo not shown) [compound 240] | 1.75 µM

Row | SMILES | IC50
24 | CCN(CC)CCCC(C)NC(=O)c1cn2c3c(c(N4CCC(NC(=O)OC(C)(C)C)C4)c(F)cc3c1=O)Oc1cc3ccccc3cc1-2 (stereo not shown) [compound 241] | 1.75 µM
25 | CN(C)CCCNC(=O)c1cn2c3c(c(N4CCC(NC(=O)OC(C)(C)C)C4)c(F)cc3c1=O)Oc1cc3ccccc3cc1-2 (stereo not shown) [compound 242] | 1.75 µM
26 | CC1CCN(CCCNC(=O)c2cn3c4c(c(N5CCC(NC(=O)OC(C)(C)C)C5)c(F)cc4c2=O)Oc2cc4ccccc4cc2-3)CC1 (stereo not shown) [compound 243] | 1.75 µM
27 | NC1CCN(c2c(F)cc3c(=O)c(C(=O)NN4CCCCC4)cn4c3c2Oc2cc3ccccc3cc2-4)C1 (stereo not shown) [compound 244] | 1.75 µM
28 | NC1CCN(c2c(F)cc3c(=O)c(C(=O)NC4CCN(Cc5ccccc5)CC4)cn4c3c2Oc2cc3ccccc3cc2-4)C1 (stereo not shown) [compound 245] | 1.75 µM
29 | CN(C)CCCNC(=O)c1cn2c3c(c(N4CCC(N)C4)c(F)cc3c1=O)Oc1cc3ccccc3cc1-2 (stereo not shown) [compound 246] | 1.75 µM
30 | NC1CCN(c2c(F)cc3c(=O)c(C(=O)NCc4ccccc4N4CCCCC4)cn4c3c2Oc2cc3ccccc3cc2-4)C1 (stereo not shown) [compound 247] | 1.75 µM
31 | NC1CCN(c2c(F)cc3c(=O)c(C(=O)NCc4ccccc4N4CCOCC4)cn4c3c2Oc2cc3ccccc3cc2-4)C1 (stereo not shown) [compound 248] | 1.75 µM
32 | NC1CCN(c2c(F)cc3c(=O)c(C(=O)N4CCCCC4CN4CCCC4)cn4c3c2Oc2cc3ccccc3cc2-4)C1 (stereo not shown) [compound 249] | 1.75 µM
33 | CCN(CC)C(=O)C1CCCN(c2c(F)cc3c(=O)c(C(=O)NCCC4CCCN4C)cn4c3c2Oc2cc3ccccc3cc2-4)C1 (stereo not shown) [compound 250] | 1.75 µM
34 | CN1CCCC1CCNC(=O)c1cn2c3c(c(NC(=O)C4CCCNC4)c(F)cc3c1=O)Oc1cc3ccccc3cc1-2 (stereo not shown) [compound 251] | 1.75 µM
35 | CN1CCCC1CCNC(=O)c1cn2c3c(c(NCC4CCNCC4)c(F)cc3c1=O)Oc1cc3ccccc3cc1-2 (stereo not shown) [compound 252] | 1.75 µM
36 | CN1CCCC1CCNC(=O)c1cn2c3c(c(/N=C4\CCCCN4)c(F)cc3c1=O)Oc1cc3ccccc3cc1-2 (stereo not shown) [compound 253] | 1.75 µM
37 | CN1CCCC1CCNC(=O)c1cn2c3c(c(N4CCC(N5CCCCC5)CC4)c(F)cc3c1=O)Oc1cc3ccccc3cc1-2 (stereo not shown) [compound 254] | 1.75 µM
38 | CCOC(=O)N1CCC(Nc2c(F)cc3c(=O)c(C(=O)NCCC4CCCN4C)cn4c3c2Oc2cc3ccccc3cc2-4)CC1 (stereo not shown) [compound 256] | 1.75 µM
39 | CN1CCC(N(C)c2c(F)cc3c(=O)c(C(=O)NCCC4CCCN4C)cn4c3c2Oc2cc3ccccc3cc2-4)CC1 (stereo not shown) [compound 257] | 1.75 µM
40 | CN1CCCC1CCNC(=O)c1cn2c3c(c(NC4CCN(Cc5ccccc5)CC4)c(F)cc3c1=O)Oc1cc3ccccc3cc1-2 (stereo not shown) [compound 258] | 1.75 µM
41 | CC1CCCCN1CCCNc1c(F)cc2c(=O)c(C(=O)NCCC3CCCN3C)cn3c2c1Oc1cc2ccccc2cc1-3 (stereo not shown) [compound 259] | 1.75 µM
42 | CN1CCCC1CCNC(=O)c1cn2c3c(c(N4CCC(C#N)(c5ccccc5)CC4)c(F)cc3c1=O)Oc1cc3ccccc3cc1-2 (stereo not shown) [compound 260] | 1.75 µM
43 | CN1CCCC1CCNC(=O)c1cn2c3c(c(N4CCC(C(N)=O)CC4)c(F)cc3c1=O)Oc1cc3ccccc3cc1-2 (stereo not shown) [compound 261] | 1.75 µM
44 | CN1CCCC1CCNC(=O)c1cn2c3c(c(N4CCC(NC(=O)OC(C)(C)C)CC4)c(F)cc3c1=O)Oc1cc3ccccc3cc1-2 (stereo not shown) [compound 262] | 1.75 µM
45 | CN(CCCNc1c(F)cc2c(=O)c(C(=O)NCCC3CCCN3C)cn3c2c1Oc1cc2ccccc2cc1-3)c1ccccc1 (stereo not shown) [compound 263] | 1.75 µM
46 | CN1CCCC1CCNC(=O)c1cn2c3c(c(Nc4ccccc4N4CCOCC4)c(F)cc3c1=O)Oc1cc3ccccc3cc1-2 (stereo not shown) [compound 264] | 1.75 µM
